The source of these data is ChEMBL document CHEMBL1201862, “PubChem BioAssay data set” (2004).

SMILES strings stand for the structures.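 Each compound was tested at five concentrations against cells in 96-well plates for 48 hours. Abbreviation: GI50, concentration required for 50% inhibition of growth.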 Calls of active or inactive are those of the source. Cut-off read from the data, not from the text of the source: active = GI50 up to about 1.1 µM and inactive = higher.

Among the test systems are 786-0; A498; CAKI-1; HT-29; Hs-578T; K562; KM12; LOX IMVI; NCI-H23; NCI-H522; RPMI-8226; SF-295; SK-MEL-5; SK-OV-3; SN12C; SNB-19; SNB-75; UACC-257; UACC-62; SNB-78.
What all share (experiment): NCI tumour cell line growth inhibition, 48 h

On to `O=C1C(F)=CC(COC(c2ccccc2)(c2ccccc2)c2ccccc2)OC1n1cc(F)c(=O)[nH]c1=O` (centres undefined), for which the GI50 in the assay with 786-0 was 1.97 µM (inactive); in the assay on A498, 8.79 µM (inactive); in the assay with CAKI-1 it was 2.49 µM (inactive); in the assay with HT-29, 0.412 µM (active); in the assay on Hs-578T, 4.24 µM (inactive); with K562, 0.278 µM (active). Moreover, the GI50 with KM12 is 1.91 µM (inactive); in the assay on LOX IMVI it was 0.533 µM (active); with NCI-H23 it was 1.77 µM (inactive); with NCI-H522 it was 1.61 µM (inactive); in the assay on RPMI-8226, 0.413 µM (active); with SF-295, 2.2 µM (inactive). The GI50 with SK-MEL-5 is 1.35 µM (inactive); in the assay on SK-OV-3, 7.05 µM (inactive); with SN12C it was 1.75 µM (inactive); in the assay with SNB-19, 5.09 µM (inactive); in the assay on SNB-75, 2.58 µM (inactive); in the assay on UACC-257, 1.96 µM (inactive). In addition, in the assay with UACC-62, the GI50 is 1.61 µM (inactive).
Consider `C=CCC(OCCOCC)c1cc(OCCOCC)ccc1OC` (centres undefined), for which the GI50 with 786-0, in the assay with CAKI-1, in the assay on HT-29, with K562, with KM12 and in the assay on LOX IMVI was > 100 µM (inactive) in each case. Further, the GI50 in the assay with NCI-H522, in the assay on RPMI-8226, with SF-295, with SK-MEL-5, in the assay with SK-OV-3 and in the assay on SN12C was > 100 µM (inactive) each time. For the same compound, the GI50 in the assay with SNB-19, in the assay with SNB-75, with SNB-78, in the assay on UACC-257 and in the assay on UACC-62 was > 100 µM (inactive) in each case.
Take `NCCOCn1cc(Cc2cccc(OCc3ccccc3)c2)c(=O)[nH]c1=O`: the GI50 in the assay on 786-0 was 53.6 µM (inactive); with A498 it was > 10 µM (inactive); in the assay with HT-29, 71.1 µM (inactive); in the assay with K562, 42.8 µM (inactive); with KM12, > 100 µM (inactive); in the assay with LOX IMVI, 39 µM (inactive). Besides, the GI50 with NCI-H23, in the assay on RPMI-8226, in the assay with SF-295, with SK-MEL-5, with SK-OV-3 and in the assay with SN12C was > 100 µM (inactive) throughout. Moreover, the GI50 in the assay on SNB-19 was > 100 µM (inactive); with SNB-75, 79.8 µM (inactive); with SNB-78, > 100 µM (inactive); in the assay on UACC-62, > 100 µM (inactive).
For the compound `COC(=O)/C(=N\Nc1nc(S)nn1N)C(C#N)c1ccccc1` (centres undefined), the GI50 with 786-0, in the assay on A498, with HT-29, with K562, in the assay with KM12 and in the assay with LOX IMVI was > 100 µM (inactive) throughout. Moreover, the GI50 with NCI-H23, in the assay with NCI-H522, in the assay on RPMI-8226, in the assay with SK-MEL-5, in the assay with SK-OV-3 and with SN12C was > 100 µM (inactive) throughout. In addition, the GI50 in the assay with SNB-19, in the assay with SNB-75, in the assay on SNB-78, with UACC-257 and in the assay on UACC-62 was > 100 µM (inactive) throughout.
Consider `O=c1[nH]c(=O)n(C2CC(O)C(CO)O2)cc1C#Cc1cc(F)cc(F)c1` (centres undefined), for which the GI50 in the assay on 786-0, in the assay with CAKI-1, in the assay on HT-29, in the assay with K562, in the assay on KM12 and in the assay with LOX IMVI was > 100 µM (inactive) in each case. The GI50 with NCI-H23, with NCI-H522, in the assay with RPMI-8226, in the assay with SF-295, with SK-MEL-5 and with SK-OV-3 was > 100 µM (inactive) in each case. For the same compound, the GI50 in the assay with SN12C was > 100 µM (inactive); in the assay with SNB-19, > 100 µM (inactive); in the assay on SNB-75 it was 48.9 µM (inactive); in the assay on SNB-78, > 100 µM (inactive); with UACC-257, > 100 µM (inactive); with UACC-62 it was > 100 µM (inactive).
Turning to `N#Cc1c(Cl)cc(C#N)n2c1nc1ccccc12`, the GI50 in the assay with 786-0 is 2.59 µM (inactive); in the assay on A498, 24.5 µM (inactive); in the assay with CAKI-1, 5.64 µM (inactive); with HT-29, 6.87 µM (inactive); in the assay with Hs-578T, 25.8 µM (inactive); in the assay on K562, 3.03 µM (inactive). Further, the GI50 is 6.98 µM (inactive) in the assay on KM12; 2.5 µM (inactive) in the assay on LOX IMVI; 13.2 µM (inactive) in the assay with NCI-H23; 2.42 µM (inactive) in the assay on NCI-H522; 4.14 µM (inactive) in the assay on RPMI-8226; 15.3 µM (inactive) in the assay on SF-295. Besides, the GI50 with SK-MEL-5 is 15.5 µM (inactive); with SK-OV-3, 21.9 µM (inactive); with SN12C, 19.4 µM (inactive); in the assay with SNB-19, > 53.1 µM (inactive); with SNB-75, 19.2 µM (inactive); in the assay with UACC-257 it was 14.9 µM (inactive). Further, the GI50 in the assay with UACC-62 is 18.3 µM (inactive).
Regarding `COc1cc(/C=C(\NC(=O)c2ccccc2)c2nc3c(O)nc(S)nc3[nH]2)cc(OC)c1OC`, the GI50 with 786-0, in the assay with CAKI-1, in the assay on HT-29, in the assay with K562, with KM12 and in the assay with NCI-H23 was > 100 µM (inactive) throughout. Also, the GI50 in the assay on NCI-H522, in the assay on SF-295, in the assay with SK-MEL-5, with SK-OV-3, with SN12C and with SNB-19 was > 100 µM (inactive) throughout. Further, the GI50 in the assay on SNB-78 and with UACC-62 was > 100 µM (inactive) throughout.
`CC(=O)OCCOCNC(=S)N/N=C(\C)c1ccco1`: the GI50 with 786-0, in the assay on A498, with HT-29, in the assay on K562, in the assay with KM12 and in the assay on LOX IMVI was > 100 µM (inactive) throughout. In addition, the GI50 in the assay on NCI-H23, in the assay on NCI-H522, in the assay with SF-295, with SK-MEL-5, in the assay on SK-OV-3 and with SN12C was > 100 µM (inactive) each time. For the same compound, the GI50 in the assay on SNB-19 is > 100 µM (inactive); with SNB-75 it was 61 µM (inactive); in the assay with SNB-78, > 100 µM (inactive); in the assay on UACC-257, > 100 µM (inactive); in the assay with UACC-62, > 100 µM (inactive).
With `Brc1ccc(C2SCc3nc4ccccc4n32)cc1` (centres undefined), the GI50 in the assay with 786-0 is 12.2 µM (inactive); in the assay on CAKI-1, 14.4 µM (inactive); in the assay on HT-29, 7.78 µM (inactive); with K562, 3.65 µM (inactive); in the assay on KM12, 5.98 µM (inactive); with LOX IMVI it was 6.46 µM (inactive). Also, the GI50 with NCI-H23 is 2.75 µM (inactive); in the assay on NCI-H522 it was 2.3 µM (inactive); in the assay on RPMI-8226 it was 5.08 µM (inactive); with SF-295 it was 11.5 µM (inactive); in the assay with SK-MEL-5, 3.72 µM (inactive); in the assay on SK-OV-3, 16.7 µM (inactive). Also, the GI50 with SN12C was 13.7 µM (inactive); with SNB-19, 4.48 µM (inactive); in the assay with SNB-75, < 0.01 µM (active); with SNB-78, 6.32 µM (inactive); with UACC-62, 6.68 µM (inactive).
Turning to `COC(=O)c1nc(C(=O)OC)c2c([nH]c3ccccc32)c1C(=O)OC`, the GI50 in the assay on 786-0 is > 100 µM (inactive); in the assay with A498, > 100 µM (inactive); in the assay with CAKI-1 it was > 10 µM (inactive); in the assay on HT-29, > 100 µM (inactive); in the assay with KM12, > 100 µM (inactive); in the assay with LOX IMVI, 58.5 µM (inactive). For the same compound, the GI50 with NCI-H23 is > 100 µM (inactive); with NCI-H522 it was > 10 µM (inactive); in the assay on SF-295, 91.4 µM (inactive); in the assay on SK-MEL-5, 9.79 µM (inactive); with SN12C, > 100 µM (inactive); in the assay on SNB-75 it was 41.5 µM (inactive). In addition, the GI50 is > 100 µM (inactive) in the assay with SNB-78, > 100 µM (inactive) in the assay on UACC-257 and 85.1 µM (inactive) in the assay with UACC-62.
As to `COC(=O)[C@@]1(C)C(=O)CC[C@@H]1C=O`, the GI50 in the assay on 786-0, in the assay with A498, with CAKI-1, in the assay with HT-29, with K562 and with KM12 was > 100 µM (inactive) each time. Besides, the GI50 in the assay on LOX IMVI, in the assay with NCI-H23, in the assay on NCI-H522, with RPMI-8226, with SF-295 and in the assay on SK-MEL-5 was > 100 µM (inactive) in each case. Further, the GI50 with SK-OV-3, with SN12C, in the assay with SNB-19, in the assay with SNB-78, with UACC-257 and in the assay with UACC-62 was > 100 µM (inactive) each time.
`COc1ccc(/C=C2\CCC(CCN(C)C)(C3=CCCC3)C2=O)cc1Br` (centres undefined): the GI50 in the assay on 786-0 was 3.78 µM (inactive); in the assay on A498, 8.95 µM (inactive); with CAKI-1 it was 8.81 µM (inactive); in the assay with HT-29 it was 2.59 µM (inactive); in the assay with K562 it was 2.58 µM (inactive); with KM12 it was 3.73 µM (inactive). Also, the GI50 in the assay on LOX IMVI is 4.06 µM (inactive); in the assay on NCI-H23 it was 13.9 µM (inactive); with NCI-H522 it was 2.06 µM (inactive); with RPMI-8226, 2.17 µM (inactive); in the assay on SF-295 it was 3.85 µM (inactive); in the assay with SK-MEL-5 it was 1.71 µM (inactive). For the same compound, the GI50 in the assay on SN12C was 9.95 µM (inactive); with SNB-19, 9.44 µM (inactive); in the assay with SNB-75, 4.49 µM (inactive); in the assay on SNB-78 it was 9.02 µM (inactive); in the assay with UACC-257, 2.43 µM (inactive).
